# Laboratory results reported in ChEMBL document CHEMBL6109057, “Synthesis of harmaline N-9 derivatives and investigation of in vitro anticancer activity” (Bioorg Med Chem Lett, 2025).
# Active and inactive are the calls of the source. No cut-off for these calls is given here.
# Columns and labels:
# [1] = system: MGC-803; assay: Antiproliferative activity against human MGC-803 cells assessed as reduction in cell viability at 50 uM measured after 24 hrs; type: functional, cell-based
# [2] = system: MCF7; assay: Antiproliferative activity against human MCF7 cells assessed as reduction in cell viability at 50 uM measured after 24 hrs; type: functional, cell-based
# [3] = system: HCT-116; assay: Antiproliferative activity against human HCT-116 cells assessed as reduction in cell viability at 50 uM measured after 24 hrs; type: functional, cell-based
# [4] = system: MGC-803; assay: Antiproliferative activity against human MGC-803 cells assessed as cell viability at 50 uM measured after 24 hrs relative to control; type: functional; conditions: read-out: Activity
# [5] = system: MCF7; assay: Antiproliferative activity against human MCF7 cells assessed as cell viability at 50 uM measured after 24 hrs relative to control; type: functional; conditions: read-out: Activity
# [6] = system: HCT-116; assay: Antiproliferative activity against human HCT-116 cells assessed as cell viability at 50 uM measured after 24 hrs relative to control; type: functional; conditions: read-out: Activity
# [7] = system: MCF7; assay: Antiproliferative activity against human MCF7 cells assessed as reduction in cell viability measured after 24 hrs; type: functional, cell-based; conditions: MCF7, 24 h
# [8] = system: HCT-116; assay: Antiproliferative activity against human HCT-116 cells assessed as reduction in cell viability measured after 24 hrs; type: functional, cell-based; conditions: HCT-116, 24 h
# [9] = system: MGC-803; assay: Antiproliferative activity against human MGC-803 cells assessed as reduction in cell viability measured after 24 hrs; type: functional, cell-based; conditions: MGC-803, 24 h
# [10] = system: HepG2; assay: Antiproliferative activity against human HepG2 cells assessed as reduction in cell viability measured after 48 hrs by 3-(4,5-dimethylthiazol-2-yl)-2,5-diphenyltetrazolium bromide assay; type: functional, cell-based; conditions: HepG2, 48 h
# [11] = system: NCI-H1299; assay: Antiproliferative activity against human NCI-H1299 cells assessed as reduction in cell viability measured after 48 hrs by MTT assay; type: functional, cell-based; conditions: NCI-H1299, 48 h
# [12] = system: A549; assay: Antiproliferative activity against human A549 cells assessed as reduction in cell viability measured after 48 hrs by MTT assay; type: functional, cell-based; conditions: A549, 48 h
# [13] = system: HeLa; assay: Antiproliferative activity against human HeLa cells assessed as reduction in cell viability measured after 48 hrs by 3-(4,5-dimethylthiazol-2-yl)-2,5-diphenyltetrazolium bromide assay; type: functional, cell-based
# [14] = system: U-87 MG; assay: Antiproliferative activity against human U87 cells assessed as reduction in cell viability measured after 48 hrs; type: functional, cell-based, U-87MG ATCC
# [15] = system: SGC-7901; assay: Antiproliferative activity against human SGC-7901 cells assessed as reduction in cell viability measured after 48 hrs by MTT assay; type: functional, cell-based; conditions: SGC-7901, 48 h
# [16] = system: U-87 MG; assay: Antiproliferative activity against human U87 cells assessed as reduction in cell viability measured after 24 hrs; type: functional, cell-based, U-87MG ATCC
# [17] = system: 4T1; assay: Antiproliferative activity against mouse 4T1 cells assessed as reduction in cell viability measured after 24 hrs by MTT assay; type: functional, cell-based; conditions: 4T1, 24 h
# [18] = system: MGC-803; assay: Effect on metabolic changes in human MGC-803 cells assessed as down regulation of aspartic acid level at 4 uM by 1H-NMR analysis; type: functional, cell-based
# [19] = Inhibition of cell clone formation in human MGC-803 cells assessed as percentage of area of cell clones at 1.5 uM (reference value: 1 +/- 0.02%); type: functional; design: scale not given: the % may be the effect or the level left
# [20] = system: MGC-803; assay: Antimigratory activity against human MGC-803 cells assessed as migration rate at 2.5 uM measured after 24 hrs scratch assay (reference value: 40.72 +/- 0.86%); type: functional
# [21] = system: MGC-803; assay: Effect on metabolic changes in human MGC-803 cells assessed as down regulation of creatine level at 4 uM by 1H-NMR analysis; type: functional, cell-based
# [22] = system: MGC-803; assay: Antimigratory activity against human MGC-803 cells assessed as increase in number of floating cells at 10 uM measured after 24 hrs by scratch assay; type: functional, cell-based
# [23] = Inhibition of cell clone formation in human MGC-803 cells assessed as percentage of area of cell clones at 2.5 uM (reference value: 1 +/- 0.02%); type: functional; design: scale not given: the % may be the effect or the level left
# [24] = system: MGC-803; assay: Effect on metabolic changes in human MGC-803 cells assessed as down regulation of ADP level at 4 uM by 1H-NMR analysis; type: functional, cell-based
# [25] = system: MGC-803; assay: Effect on metabolic changes in human MGC-803 cells assessed as down regulation of choline phosphate level at 4 uM by 1H-NMR analysis; type: functional, cell-based
# [26] = system: MGC-803; assay: Antimigratory activity against human MGC-803 cells assessed as migration rate at 5 uM measured after 48 hrs scratch assay (reference value: 63 +/- 1.61%); type: functional
# [27] = system: MGC-803; assay: Effect on metabolic changes in human MGC-803 cells assessed as upregulation of glycine level at 4 uM by 1H-NMR analysis; type: functional, cell-based
# [28] = system: MGC-803; assay: Antimigratory activity against human MGC-803 cells assessed as migration rate at 2.5 uM measured after 48 hrs scratch assay (reference value: 63 +/- 1.61%); type: functional
# [29] = system: MGC-803; assay: Effect on metabolic changes in human MGC-803 cells assessed as down regulation of AMP level at 4 uM by 1H-NMR analysis; type: functional, cell-based
# [30] = Cytotoxicity against HEK293FT cells assessed as reduction in cell viability measured after 24 hrs; type: toxicity, cell-based; conditions: human
# [31] = system: MGC-803; assay: Antimigratory activity against human MGC-803 cells assessed as increase in large number of dead cells at 10 uM measured after 48 hrs by scratch assay; type: functional, cell-based
# [32] = system: MGC-803; assay: Effect on metabolic changes in human MGC-803 cells assessed as upregulation of leucine level at 4 uM by 1H-NMR analysis; type: functional, cell-based
# [33] = system: MGC-803; assay: Effect on metabolic changes in human MGC-803 cells assessed as down regulation of NAD+ level at 4 uM by 1H-NMR analysis; type: functional, cell-based
# [34] = system: MGC-803; assay: Effect on metabolic changes in human MGC-803 cells assessed as down regulation of GSH level at 4 uM by 1H-NMR analysis; type: functional, cell-based
# [35] = system: MGC-803; assay: Antimigratory activity against human MGC-803 cells assessed as increase in aggregated dead cells at 10 uM measured after 24 hrs by scratch assay; type: functional, cell-based
# [36] = Inhibition of cell clone formation in human MGC-803 cells assessed as percentage of area of cell clones at 1 uM (reference value: 1 +/- 0.02%); type: functional; design: scale not given: the % may be the effect or the level left
# [37] = system: MGC-803; assay: Effect on metabolic changes in human MGC-803 cells assessed as down regulation of taurine level at 4 uM by 1H-NMR analysis; type: functional, cell-based
# [38] = system: MGC-803; assay: Antimigratory activity against human MGC-803 cells assessed as migration rate at 5 uM measured after 24 hrs scratch assay (reference value: 40.72 +/- 0.86%); type: functional
smiles,measurement,setting,value
COc1ccc2c3c(n(Cc4ccc(F)cc4)c2c1)C(C)=NCC3,Activity,[1],Active
same,Activity,[2],Active
same,Activity,[3],Active
COc1ccc2c3c(n(Cc4cccc(C)c4)c2c1)C(C)=NCC3,Activity,[1],Active
same,Activity,[2],Active
same,Activity,[3],Active
COc1ccc2c3c(n(CCc4ccc(F)cc4)c2c1)C(C)=NCC3,Activity,[1],Active
same,Activity,[2],Active
same,Activity,[3],Active
COC(=O)Cn1c2c(c3ccc(OC)cc31)CCN=C2C,Activity,[1],Active
same,Activity,[2],Active
same,Activity,[3],Active
COc1ccc2c3c(n(C/C=C/c4ccccc4)c2c1)C(C)=NCC3,Activity,[1],Active
same,Activity,[2],Active
same,Activity,[3],Active
COc1ccc2c3c(n(CCCCCBr)c2c1)C(C)=NCC3,Activity,[1],Active
same,Activity,[2],Active
same,Activity,[3],Active
COc1ccc2c3ccnc(C)c3n(CCCCCn3c4cc(OC)ccc4c4ccnc(C)c43)c2c1,viability at 50 µM,[4],~59%
same,viability at 50 µM,[5],~35%
same,viability at 50 µM,[6],~31%
COC(=O)CCn1c2c(c3ccc(OC)cc31)CCN=C2C,Activity,[1],Active
same,Activity,[2],Active
same,Activity,[3],Active
COc1ccc2c3c(n(Cc4ccccc4C)c2c1)C(C)=NCC3,Activity,[1],Active
same,Activity,[2],Active
same,Activity,[3],Active
COc1ccc2c3c(n(Cc4ccccc4F)c2c1)C(C)=NCC3,Activity,[1],Active
same,Activity,[2],Active
same,Activity,[3],Active
COc1ccc2c3c(n(CCCCCCBr)c2c1)C(C)=NCC3,IC50,[7],18.5 µM
same,IC50,[8],8.95 µM
same,IC50,[9],15.4 µM
same,viability at 50 µM,[4],< 10%
same,viability at 50 µM,[5],< 10%
same,viability at 50 µM,[6],< 10%
COc1ccc2c3c(n(Cc4cccc(F)c4)c2c1)C(C)=NCC3,Activity,[1],Active
same,Activity,[2],Active
same,Activity,[3],Active
COc1ccc2c3c(n(CCCCBr)c2c1)C(C)=NCC3,Activity,[1],Active
same,Activity,[2],Active
same,Activity,[3],Active
COc1ccc2c3c(n(CCCCCCn4c5cc(OC)ccc5c5ccnc(C)c54)c2c1)C(C)=NCC3,Activity,[1],Active
same,Activity,[2],Active
same,Activity,[3],Active
COC(=O)CCCCn1c2c(c3ccc(OC)cc31)CCN=C2C,Activity,[1],Active
same,Activity,[2],Active
same,Activity,[3],Active
C=CCn1c2c(c3ccc(OC)cc31)CCN=C2C,Activity,[1],Active
same,Activity,[2],Active
same,Activity,[3],Active
COC(=O)CCCn1c2c(c3ccc(OC)cc31)CCN=C2C,Activity,[1],Active
same,Activity,[2],Active
same,Activity,[3],Active
C#CCn1c2c(c3ccc(OC)cc31)CCN=C2C,Activity,[1],Active
same,Activity,[2],Active
same,Activity,[3],Active
COc1ccc2c3c([nH]c2c1)C(C)=NCC3 [HARMALINE],IC50,[10],11.2 µM
same,IC50,[11],48.2 µM
same,IC50,[12],67.9 µM
same,IC50,[13],28 µM
same,viability at 50 µM,[4],~120%
same,IC50,[14],127 µM
same,IC50,[15],4.08 µM
same,IC50,[16],208 µM
same,IC50,[17],30.9 µM
same,viability at 50 µM,[5],~71%
same,viability at 50 µM,[6],~75%
COc1ccc2c3c(n(Cc4ccc(C)cc4)c2c1)C(C)=NCC3,Activity,[1],Active
same,Activity,[2],Active
same,Activity,[3],Active
COc1ccc2c3c(n(CCCCCn4c5cc(OC)ccc5c5ccnc(C)c54)c2c1)C(C)=NCC3,Activity,[18],Active
same,Activity,[19],0.33%
same,Activity,[20],25.5%
same,IC50,[7],8.67 µM
same,Activity,[21],Active
same,Activity,[22],Active
same,Activity,[23],0.02%
same,Activity,[24],Active
same,IC50,[8],3.84 µM
same,Activity,[25],Active
same,IC50,[9],5.26 µM
same,Activity,[26],33.65%
same,Activity,[27],Active
same,Activity,[28],44.14%
same,Activity,[29],Active
same,IC50 at 24 h,[30],47.6 µM
same,viability at 50 µM,[4],< 10%
same,Activity,[31],Active
same,Activity,[32],Active
same,Activity,[33],Active
same,Activity,[34],Active
same,Activity,[35],Active
same,Activity,[36],0.56%
same,viability at 50 µM,[5],< 10%
same,viability at 50 µM,[6],< 10%
same,Activity,[37],Active
same,Activity,[38],20.76%
COc1ccc2c3c(n(Cc4ccc5ccccc5c4)c2c1)C(C)=NCC3,IC50,[7],11.9 µM
same,IC50,[8],6.32 µM
same,IC50,[9],21.4 µM
same,viability at 50 µM,[4],< 10%
same,viability at 50 µM,[5],< 10%
same,viability at 50 µM,[6],< 10%
COc1ccc2c3c(n(Cc4ccccc4)c2c1)C(C)=NCC3,Activity,[1],Active
same,Activity,[2],Active
same,Activity,[3],Active
COc1ccc2c3c(n(CCCCn4c5cc(OC)ccc5c5ccnc(C)c54)c2c1)C(C)=NCC3,IC50,[7],18.7 µM
same,IC50,[8],4.5 µM
same,IC50,[9],10.2 µM
same,viability at 50 µM,[4],< 10%
same,viability at 50 µM,[5],< 10%
same,viability at 50 µM,[6],< 10%
